{"source": "patent US20050239715A1", "about": "“Inhibition of allergic contact dermatitis by N-L-alpha-aspartyl-L-phenylalanine 1-methyl ester” (priority 2004, published 2005)", "key": {"[1]": {"test_system": "Urushiol-Induced Dermatitis on Human Skin", "test": "Example 2: prevention of urushiol-induced dermatitis on human skin", "assay_type": "in vivo", "conditions": "thin film of APM suspended in petroleum cream base applied before exposure", "description": "To an area of skin which may be exposed to urushiol is applied a thin film of APM suspended in a petroleum cream base."}, "[2]": {"test_system": "allergic contact dermatitis, skin previously exposed to urushiol", "test": "Example 1: treatment of allergic contact dermatitis with APM in a cream base", "assay_type": "in vivo", "conditions": "thin film of APM in cream base, after sixty (60) minutes", "description": "To an area of skin previously exposed to urushiol is applied a thin film of APM in a cream base. […] Further treatment may include washing the affected area to remove and displace urushiol dissolved in the applied lotion and followed by reapplication of APM containing cream or lotion."}, "[3]": {"conditions": "cited from earlier work"}, "[4]": {"test_system": "capsaicin taste receptor (heat and irritation of the tongue)", "test": "Oral application of APM with capsaicin-containing red pepper sauce", "assay_type": "in vivo", "description": "The variability in observable results in preventing dermatitis or topical irritation appear related to the amount of APM that is applied, the time and order of the therapeutic application, and the presence of receptors to which either the irritant oil or APM may bind."}, "[5]": {"test_system": "human rash secondary to urushiol exposure", "test": "Example 4: treatment of rash caused by urushiol", "assay_type": "in vivo", "experimental": "A human rash, with itching, in progress secondary to contact with an animal known to have had significant exposure to urushiol substances was arrested in 8 hours with 2 applications of aspartame in a Vaseline Intensive Care Lotion base (about 1.2 to 10 mg/ml). The itching ceased, and discomfort and irritation resolved within 8 hours."}, "[6]": {"test_system": "capsaicin burning of the eye", "test": "Example 7: capsaicin burning of the eye", "assay_type": "in vivo, human", "conditions": "about 10 mg per 250 microliters in sterile saline applied to eye", "experimental": "A kitchen worker is exposed to capsaicin oil from peppers during cooking preparation, the oil is transferred to their hands and then, by their hands, to their eyes, resulting in a burning sensation and pain. […] The application may be repeated in 15 min because tearing may dilute or wash away the active ingredients."}, "[7]": {"test_system": "Urushiol-Induced Dermatitis on Human Skin", "test": "Example 3: treatment and prevention of urushiol-induced dermatitis on human skin (Patient 1)", "assay_type": "in vivo", "conditions": "topical lotion 0.5 to 1 mg APM/ml, two to three times per day, also two packets Equal by mouth", "experimental": "The goats frequently consumed and were in contact with both poison sumac and poison ivy abundant in their enclosure without experiencing symptoms.\nA topical APM preparation was made by mixing 2 to 3 packets of Equal® brand sweetner (80-120 mg of APM) with approximately 170 ml (5.5 fluid ounces) of lotion containing Vaseline® Intensive Care® Water Resistant Moisturizing Lotion (Unilever United States, Inc.), resulting in a lotion with 0.5 to 1 mg APM/ml. Patient 1 had previously used the lotion base without effect. Patient 1 also took two packets of Equal® brand sweetener by mouth in response to a symptom of diarrhea, a condition known to be associated with urishiol.\nA soap and water scrub of the affected area was done one hour after application of the cream, and the affected area allowed to air dry.\nAdditional affected areas were then discovered on Patient 1, and a lotion was prepared for Patient 1 to use on these areas as well as unaffected areas that could come in contact with poison ivy during their work. Patient 1 used additional topical APM preparation approximately two to three times per day."}, "[8]": {"test_system": "capsaicin burning and pain of mucosa", "test": "Example 8: APM after inadvertent mucosal contact with capsaicin cream", "assay_type": "in vivo, human", "conditions": "preparation of 38 mg APM per 5 ml applied to affected area", "experimental": "A patient is treated for arthritis with a capsaicin cream applied twice daily to the affected joint. Capsaicin is absorbed by the transdermal tissue and then transported to joint area. After an appropriate interval, for instance 2-5 days, significant reduction in swelling, heat, redness, and pain is observed. However, the patient also inadvertently contacts his or her urethra, periurethra tissues, vaginal mucosa, rectal mucosa, eyes, or nose with the capsaicin cream, resulting in a sensation of burning and pain in the affected area."}}, "note": "Residues, ends and D or L forms follow the SMILES beside them.", "data": [{"smiles": "COC(=O)[C@H](Cc1ccccc1)NC(=O)[C@@H](N)CC(=O)O", "note": "[APM, N-L-alpha-aspartyl-L-phenylalanine 1-methyl ester] (H-Asp-Phe-OMe)", "values": [{"measurement": "symptoms of allergic contact dermatitis", "setting": "[1]", "value": "either do not appear or are significantly reduced"}, {"measurement": "symptoms of allergic contact dermatitis", "setting": "[2]", "value": "significantly reduced"}, {"measurement": "pH at which cyclisation with formation of diketopiperazine occurs in APM solutions", "setting": "[3]", "value": "greater than 5"}, {"measurement": "perception of spiciness of red pepper sauce", "setting": "[4]; APM applied orally before red pepper sauce", "value": "absence of recognition of the spicyness"}, {"measurement": "APM response after long duration of exposure to capsaicin", "setting": "[4]; long exposure with secondary effects", "value": "not as strong nor as quick"}, {"measurement": "response when APM is applied after sensations of heat and irritation developed", "setting": "[4]; red pepper sauce applied to tongue first, APM after", "value": "manifested and recognized quickly"}, {"measurement": "time in which rash with itching was arrested", "setting": "[5]; 2 applications in Vaseline Intensive Care Lotion base, about 1.2 to 10 mg/ml", "value": 8, "unit": "h"}, {"measurement": "time in which itching ceased and discomfort and irritation resolved", "setting": "[5]; 2 applications in lotion base, about 1.2 to 10 mg/ml", "value": "≤ 8", "unit": "h"}, {"measurement": "state of rash overnight", "setting": "[5]; overnight after 2 applications in lotion base", "value": "the rash was gone"}, {"measurement": "burning sensation of the eye", "setting": "[6]", "value": "alleviated"}, {"measurement": "rash or reaction observed on the day after application", "setting": "[7]", "value": "no rash or reaction had occurred"}, {"measurement": "burning and pain of affected area", "setting": "[8]", "value": "reducing or eliminating the burning and pain"}]}]}
